Results published in the supplement of paper PMC10307832.

Legend:
Assay in all cases: relative viability (nuclei count vs DMSO), 5 days (fraction); higher = more cells survive
[1] = compound: COc1cc([C@@H]2c3cc4c(cc3[C@@H](O[C@@H]3O[C@@H]5CO[C@@H](C)O[C@H]5[C@H](O)[C@H]3O)[C@H]3COC(=O)[C@H]23)OCO4)cc(OC)c1O [Etoposide] + COc1cccc2cc(-c3nc([C@H]4CC[C@H](C(=O)O)CC4)n4ncnc(N)c34)[nH]c12 [OSI-027] (partner 0.5 µM)
Method in brief: (§1)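 For relative viability, nuclei counts in treated wells were divided by those in vehicle wells. Lung cancer cell lines had been pin-tool dosed in 1536-well plates the day after seeding and cultured for 5 days, then fixed and stained in one step (final 0.05% Triton X-100, 1% formaldehyde, 1 ug/ml Hoechst) and imaged at 4×. Doses were one drug alone or a fixed anchor-drug dose plus five library-drug doses (not always all listed) in √10 steps, and values are duplicate-plate medians.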

[2] = compound: COc1cc([C@@H]2c3cc4c(cc3[C@@H](O[C@@H]3O[C@@H]5CO[C@@H](C)O[C@H]5[C@H](O)[C@H]3O)[C@H]3COC(=O)[C@H]23)OCO4)cc(OC)c1O [Etoposide] + NC(=O)Nc1cc(-c2cccc(F)c2)sc1C(=O)N[C@H]1CCCNC1 [AZD7762] (partner 0.2 µM)
Method in brief: as §1

[3] = compound: CC1=C(N=C(N=C1N)[C@H](CC(=O)N)NC[C@@H](C(=O)N)N)C(=O)N[C@@H]([C@H](C2=CN=CN2)OC3C(C(C(C(O3)CO)O)O)OC4C(C(C(C(O4)CO)O)OC(=O)N)O)C(=O)N[C@H](C)[C@H]([C@H](C)C(=O)N[C@@H]([C@@H](C)O)C(=O)NCCC5=NC(=CS5)C6=NC(=CS6)C(=O)NCCC[S+](C)C)O [Bleomycin] + CS(=O)(=O)CCNCc1ccc(-c2ccc3ncnc(Nc4ccc(OCc5cccc(F)c5)c(Cl)c4)c3c2)o1 [Lapatinib] (partner 2 µM); conditions: main component drawn
Method in brief: as §1

[4] = compound: CC1=C(N=C(N=C1N)[C@H](CC(=O)N)NC[C@@H](C(=O)N)N)C(=O)N[C@@H]([C@H](C2=CN=CN2)OC3C(C(C(C(O3)CO)O)O)OC4C(C(C(C(O4)CO)O)OC(=O)N)O)C(=O)N[C@H](C)[C@H]([C@H](C)C(=O)N[C@@H]([C@@H](C)O)C(=O)NCCC5=NC(=CS5)C6=NC(=CS6)C(=O)NCCC[S+](C)C)O [Bleomycin] + COc1cc2c(Oc3ccc(NC(=O)C4(C(=O)Nc5ccc(F)cc5)CC4)cc3F)ccnc2cc1OCCCN1CCOCC1 [Foretinib] (partner 0.25 µM); conditions: main component drawn
Method in brief: as §1

Cell Line | relative viability ([1]; first compound 0.01 µM) | relative viability ([1]; first compound 0.03162 µM) | relative viability ([1]; first compound 0.1 µM) | relative viability ([1]; first compound 0.3162 µM) | relative viability ([1]; first compound 1 µM) | relative viability ([2]; first compound 0.01 µM) | relative viability ([2]; first compound 0.03162 µM) | relative viability ([2]; first compound 0.1 µM) | relative viability ([2]; first compound 0.3162 µM) | relative viability ([2]; first compound 1 µM) | relative viability ([3]; first compound 0.01 µM) | relative viability ([3]; first compound 0.03162 µM) | relative viability ([3]; first compound 0.1 µM) | relative viability ([3]; first compound 0.3162 µM) | relative viability ([3]; first compound 1 µM) | relative viability ([4]; first compound 0.01 µM) | relative viability ([4]; first compound 0.03162 µM) | relative viability ([4]; first compound 0.1 µM) | relative viability ([4]; first compound 0.3162 µM) | relative viability ([4]; first compound 1 µM)
NCI-H1666 | 0.853 | 0.812 | 0.678 | 0.528 | 0.408 | 0.852 | 0.99 | 0.814 | 0.583 | 0.532 | 0.607 | 0.417 | 0.344 | 0.247 | 0.288 | 0.763 | 0.675 | 0.533 | 0.44 | 0.398
NCI-H1734 | 0.636 | 0.617 | 0.406 | 0.497 | 0.302 | 0.561 | 0.538 | 0.333 | 0.306 | 0.19 | 0.802 | 0.854 | 0.691 | 0.268 | 0.184 | 0.773 | 0.564 | 0.631 | 0.344 | 0.228
NCI-H1755 | 0.69 | 0.659 | 0.609 | 0.641 | 0.585 | 0.45 | 0.487 | 0.407 | 0.403 | 0.52 | 0.91 | 1.03 | 0.92 | 0.631 | 0.578 | 0.838 | 0.976 | 0.948 | 0.638 | 0.592
NCI-H1793 | 0.243 | 0.325 | – | 0.246 | 0.209 | – | 0.548 | 0.282 | 0.474 | 0.196 | 0.729 | 0.567 | 0.544 | 0.275 | 0.219 | 0.717 | 0.724 | 0.734 | 0.269 | 0.218
NCI-H1915 | 0.598 | 0.637 | 0.492 | 0.572 | 0.504 | 0.66 | 0.777 | 0.697 | 0.648 | 0.527 | 0.669 | 0.771 | 0.385 | 0.192 | 0.15 | 0.929 | 0.885 | 0.763 | 0.431 | 0.257
NCI-H1944 | 0.417 | 0.52 | 0.344 | 0.294 | 0.205 | 0.577 | 0.639 | 0.276 | 0.377 | 0.235 | 0.533 | 0.41 | 0.355 | 0.242 | 0.151 | 0.55 | 0.391 | 0.384 | 0.225 | 0.203
NCI-H1975 | 0.733 | 0.975 | 0.594 | 0.748 | 0.27 | 0.702 | 0.804 | 0.508 | 0.658 | 0.443 | 0.657 | 0.551 | 0.542 | 0.25 | 0.213 | 0.708 | 0.582 | 0.434 | 0.191 | 0.198
NCI-H1993 | 0.565 | 0.452 | 0.53 | 0.508 | 0.522 | – | 0.838 | 0.474 | 0.759 | 0.596 | 0.732 | 0.736 | 0.754 | 0.656 | 0.609 | 0.809 | 0.667 | 0.796 | 0.644 | 0.479
NCI-H2085 | 0.542 | 0.705 | 0.533 | 0.676 | 0.373 | 0.831 | 0.905 | 0.803 | 0.911 | 0.453 | 0.689 | 0.689 | 0.6 | 0.437 | 0.449 | 1.03 | 0.845 | 0.692 | 0.461 | 0.396
NCI-H2087 | 0.514 | 0.59 | 0.364 | 0.386 | 0.173 | 1.46 | 1.3 | 1.3 | 1.08 | 0.78 | 0.642 | 0.97 | 0.798 | 0.301 | 0.235 | – | 0.827 | 0.872 | 0.205 | 0.158
NCI-H2126 | 0.742 | 0.662 | – | 0.706 | 0.506 | 0.93 | 1.08 | 0.681 | 0.948 | 0.919 | 0.768 | 0.76 | 0.735 | 0.638 | 0.548 | 1.17 | 1.26 | 1.23 | 0.903 | 0.491
NCI-H2170 | 0.697 | 0.76 | 0.44 | 0.736 | 0.536 | 0.721 | 0.882 | – | 0.881 | 0.482 | 0.303 | 0.262 | 0.259 | 0.231 | 0.21 | 0.992 | 0.98 | 0.736 | 0.855 | 0.829
NCI-H2347 | 0.365 | 0.338 | 0.325 | 0.358 | 0.32 | 0.685 | 0.828 | 0.311 | 0.374 | 0.367 | 0.836 | 0.974 | 0.966 | 0.612 | 0.493 | 0.852 | 0.97 | 0.628 | 0.319 | 0.692
NCI-H2405 | 0.637 | 0.671 | 0.49 | 0.612 | 0.462 | 0.754 | 0.765 | 0.728 | 0.638 | 0.317 | 0.836 | 1.01 | 0.889 | 0.357 | 0.262 | 0.929 | 1.04 | 0.992 | 0.796 | 0.585
NCI-H3122 | 0.799 | 0.985 | 0.404 | 0.722 | 0.349 | 0.998 | 0.998 | 0.834 | 0.607 | 0.181 | 0.931 | 0.996 | 0.842 | 0.654 | 0.528 | 0.956 | 0.99 | 0.914 | 0.483 | 0.357
